Laboratory results published in patent publication US20030207933A1, “Compositions and methods for increasing the sensitivity of apoptosis-resistant tumor cells to inducers of apoptosis” (priority 2002, published 2003).

Experiments:
HL-60 cells = assay: Subcellular distribution of W-188 in HL-60 cells (absorbance at 380 nm); type: in vitro ADME, human
Procedure: A method to measure the subcellular localization of this compound was developed by the inventors of the present invention. Because of its distinctive absorbance spectrum, W-188 can be detected in cell and tissue extracts by measuring absorbance at 380 nm, and quantitated relative to a standard curve constructed with known amounts of W-188. HL-60 and PW cells containing vector control or overexpressing Bcl-2 were incubated with W-188 followed by cell lysis and isolation of nuclei, mitochondria, and cytotol by differential centrifugation.
Furthermore, it can be seen that nuclei and mitochondria from cells overexpressing Bcl-2 accumulated higher levels of W-188 than the vector control cells. These findings are consistent with the hypothesis that W-188 may counteract the protective effects of Bcl-2 mediated at both the mitochondria as well as the nucleus.

HL-60 neo cells = assay: DNA fragmentation (release of 3H-labeled DNA fragments) in vector control HL-60 neo cells; type: cell-based, human; conditions: neo cell lines (HL-60 neo, PW neo); compound added to inducers
Procedure: The present study evaluated the ability of W-188 to sensitize Bcl-2-overexpressing cells to induce apoptosis. The human myelogenous leukemia, HL-60, and the human B cell leukemia, PW, normally express very low levels of Bcl-2. As a model system, W-188 and various analogs and derivatives were tested in normal HL-60 and PW cells and in Bcl-2-transfected HL-60 and PW cells that overexpress high levels of Bcl-2 (see Gilbert et al., J. Cell Physiol., 1996, 171:299).
As depicted in FIG. 4, HL-60 cells (Panel A) and PW cells (Panel B) cells were exposed to various apoptosis inducers: TNF at 5 ng/ml; etoposide at 20 μM; and UV at 0.08 J/cm^2. The release of 3H-labeled DNA fragments was measured after 5 h. Normal HL-60 and PW cells were equally sensitive to apoptosis inducers as compared with cells that were transfected with vector encoding neomycin resistance (HL-60 neo and PW neo) only. […] W-188 alone was nontoxic. The addition of W-188 to the neo cell lines caused a 1.5-2 fold increase in DNA fragmentation in response to the various apoptosis inducers.

HL-60-Bcl-2 xenograft = HL-60-Bcl-2 xenograft growth in nude mice; type: in vivo; conditions: single dose
Procedure: Groups of five nude mice were injected s.c. with 5×10^6 HL-60-Bcl-2 cells, and tumors allowed to grow to a size of 7-10 mm. Tumors were then exposed to a single dose of γ-radiation, a single dose of W-188 or vehicle control, or a single dose of both γ-radiation and W-188. Tumor growth was monitored every other day, and when the tumor volume increased four fold, the animals were sacrificed.

mice = assay: Histopathological analysis of internal organs after xenograft treatment; type: in vivo, nude mice; conditions: radiation + W-188 200 mg/kg; thirty days after treatment
Procedure: Thirty days after treatment, three mice that were given radiation+W-188 200 mg/kg (the optimal treatment in this experiment) were sacrificed and internal organs removed and processed for histopathological analysis by a board-certified pathologist at a commercial lab.

overexpression of Bcl-2 = assay: Comparison with compounds reported to counteract Bcl-2; type: cell-based; conditions: at 2.5 [M; data not shown
Source text: W-188 was then compared to other compounds previously reported to counteract Bcl-2 (Marchetti, P., et al., J. Immunol., 1996, 157:4830; Hirsch, T., et al., Exp. Cell Res., 1998, 241:426).

[1] = tested on: Wehi-Hsp70 fibrosarcoma cells; assay: 20 h DNA fragmentation assay in Wehi cells overexpressing Hsp70; type: cell-based, murine; conditions: etoposide + 20 μM W-188, FIG. 8
Procedure: This finding was confirmed using the Wehi murine fibrosarcoma cell line that is transfected with and overexpresses Hsp70, as described previously (Jaattela, M., et al., EMBO J. 1998, 17:6124). Wehi transfected with Hsp70 or vector control were cultured with etoposide ±20 μM W-188 in a 20 h DNA fragmentation assay.

LY-ar cells = assay: 10 day colony formation assay, LY-ar; type: cell-based, murine; conditions: not shown
Source text: LY-ar was highly resistant to apoptosis induced by y-radiation. […] The apparent selective effects of W-188 may be due to the preferential intracellular accumulation of porphyrin compounds in transformed cells as opposed to normal cells reported previously (Bugelski, P. J., et al., Cancer Res., 1981, 41:4606).

P3X63Ag8.653 (P3X) cells = assay: Drug-induced DNA fragmentation in Bcl-XL-overexpressing myeloma cells; type: cell-based, murine; conditions: W-188 0.1 μg/mL; etoposide, chlorambucil, YW-200; 24 h; FIG. 5
Procedure: It has been reported that the murine myeloma, SP2/0, is highly sensitive to cycloheximide-induced apoptosis, whereas the related murine myeloma, P3X63Ag8.653 (P3X), was resistant (Gauthier, E. R., et al., Cancer Res., 1996, 56:1451). This resistance was attributed to natural high levels of expression of Bcl-XL in the absence of any detectable Bcl-2. In contrast, SP2 expressed neither Bcl-2 or Bcl-XL. Thus, normal (SP2) or Bcl-XL-overexpressing cells (P3X) were treated with chemotherapeutic drugs ±0.1 μg/ml W-188. After 24 h, % DNA fragmentation was measured by release of ^3H-labeled DNA fragments.
P3X was relatively resistant to DNA fragmentation induced by three chemotherapeutic drugs, etoposide, chlorambucil, and YW-200, relative to SP2 (FIG. 5). YW-200 is an experimental DNA-binding chemotherapeutic drug related to CC-1065 (Wang, Y., et al., U.S. Pat. No. 5,843,937, 1998).

bFGF-treated U937 cells = assay: DNA fragmentation in bFGF-treated U937 cells; type: cell-based; conditions: 1 ng/ml bFGF 20 h pretreatment; FIG. 9
Procedure: Another means by which cells may evade apoptosis is by treatment with various growth factors. To assess the ability of W-188 to reverse the apoptosis resistance induced by growth factors, U937 cells were treated ±1 ng/ml basic fibroblast growth factor (bFGF) for 20 h, then exposed to etoposide or TNF and DNA fragmentation measured.

GSH = assay: Intracellular GSH levels; type: cell-based
Source text: (§1) However, more recent findings indicate that W-188 may also downregulate expression of endogenous Bcl-2 in cells that naturally have high levels of this protein.

caspase 3 = assay: Caspase 3 activity (DEVDase); type: cell-based
Source text: as §1

Bcl-2 = assay: Expression of Bcl-2 protein in HL-60-Bcl-2 cells; type: cell-based, human; conditions: W-188 + etoposide / chemotherapeutic drugs, in vitro
[2] = W-188 + etoposide, HL-60-Bcl-2 and LY-ar cells

SMILES: CCC1=C(C)C(/C=C2\NC(=O)C(C)=C2CC)=NC/1=C\c1[nH]c(/C=C2\NC(=O)C(C)=C2CC)c(C)c1CC [W-188, etiobiliverdin-IV]
- W-188 (μg/mg protein), Cytosol (HL-60 cells; HL-60 Bcl-2): 0.25 μg/mg protein
- W-188 (μg/mg protein), Mitochondria (HL-60 cells; HL-60 Bcl-2): 10.0 μg/mg protein
- W-188 (μg/mg protein), Nuclei (HL-60 cells; HL-60 Bcl-2): 186 μg/mg protein
- W-188 (μg/mg protein), Cytosol (HL-60 cells; HL-60 neo): 0 μg/mg protein
- W-188 (μg/mg protein), Mitochondria (HL-60 cells; HL-60 neo): 3.3 μg/mg protein
- W-188 (μg/mg protein), Nuclei (HL-60 cells; HL-60 neo): 100 μg/mg protein
- Increase in DNA fragmentation in response to apoptosis inducers (HL-60 neo cells): 1.5-2 fold
- Effect on tumor growth (HL-60-Bcl-2 xenograft; W-188 200 mg/kg alone): no significant effect
- Effect on tumor growth (HL-60-Bcl-2 xenograft; W-188 400 mg/kg alone, p=0.005): significantly inhibited tumor growth
- Effect on tumor growth (HL-60-Bcl-2 xenograft; γ-radiation + W-188 200 mg/kg, p=0.006): even greater inhibition of tumor growth compared to radiation alone
- Histopathology of heart, lung, liver, spleen, kidney, stomach, intestine (mice): All tissues examined were found to be normal
- Reversal of the effect of overexpression of Bcl-2 (overexpression of Bcl-2): completely reversed the effect of overexpression of Bcl-2
- Etoposide-induced DNA fragmentation [1]: underwent DNA fragmentation at levels comparable to that observed with the Wehi-vector control
- Sensitization to cell death mediated by etoposide and chlorambucil (LY-ar cells): sensitized HL-60-Bcl-2 and LY-ar cells to cell death mediated by etoposide and chlorambucil
- Sensitization to drug-induced DNA fragmentation (P3X63Ag8.653 (P3X) cells): sensitized P3X to undergo drug-induced DNA fragmentation at levels close to or equal to those of SP2
- Reversal of bFGF-induced resistance to etoposide or TNF-induced DNA fragmentation (bFGF-treated U937 cells): completely reversed resistance to apoptosis
- Intracellular levels of GSH (GSH; [2]): caused depletion of GSH
- Intracellular levels of GSH (GSH; W-188 alone): did not affect intracellular levels of GSH or caspase 3 activity
- Caspase 3 activity (DEVDase) (caspase 3; [2]): activation of caspase 3
- Caspase 3 activity (DEVDase) (caspase 3; W-188 alone): did not affect intracellular levels of GSH or caspase 3 activity
- Expression of Bcl-2 protein (Bcl-2): did not downregulate the expression of Bcl-2 protein
